In one data set the target is HER2 (ErbB2) (Homo sapiens, UniProt P04626). The data set is described as follows: in vitro enzyme activity, HER2 (ErbB2). In kind it is biochemical. Particulars: human ErbB2, [γ-33P]ATP, poly(Glu, Tyr) substrate. The procedure: The purpose of this assay is to detect the in vitro inhibitory activity of compounds on HER1 (ErbB1), HER2 (ErbB2), and HER4 (ErbB4). The enzymes used in this assay are human ErbB1, ErbB2 and ErbB4. Eurofins Pharma Discovery Service provided the method for activity detection.
Steps and Method of the Assay (96-Well Plate):
A buffer solution of the test compounds in a dilution of 5-fold (5 μL), polypeptide substrate poly(Glu, Tyr) (4:1) (2.5 μL), ErbB (4-20 ng, 2.5 μL), MnCl2 (50 mM, 1.25 μL), dH2O (3.75 μL), and [γ-^33P]ATP (10 μL) were added, and incubated at 30° C. for 10 minutes. The reaction was terminated by adding 3% phosphoric acid. 10 μL of the sample was taken and transferred to Filtermate A. The filter disc was washed 3 times with 75 mM phosphoric acid and once with methanol. The filter disc was transferred to a sealed plastic bag and the scintillation mixture (4 mL) was added. The intensity of the emitted photon was detected by a scintillation luminescence counter. The CPM (times/min) of the enzyme sample was compared with the CPM of the internal control sample. The level of photon intensity reflected the degree of the tyrosine kinase activity.

Data set [1] has as its system subcutaneous xenograft tumor of human gastric cancer NCI-N87 cells. In kind it is in vivo. Particulars: for Tumor volume (mm3) (Day 21) / T/C (%) / TGI (%): 3 mg/kg (D0-7) + 1 mg/kg (D8-21); for Tumor volume (mm3) (Day 21): NCI-N87 xenograft, Mean ± SEM; for T/C (%) / TGI (%): day 21. As to the method: Purpose of the assay: to evaluate the in vivo efficacy of compounds to be tested on subcutaneous xenograft tumor of human gastric cancer NCI-N87 cells in a BALB/c nude mouse model.
Animals of the assay: female BALB/c nude mice, 6-8 weeks old, weighted 18-22 grams; supplier: shanghai sippr bk laboratory animals Ltd.
Human gastric cancer NCI-N87 cells were cultured in monolayer in vitro. The culture conditions were RPMI-1640 medium plus 10% fetal bovine serum, 100 U/mL penicillin, 100 μg/mL streptomycin and 2 mM glutamine, 37° C., 5% CO2. The passaging was performed by the conventional digestion with trypsin-EDTA twice a week. When the cell saturation was 80%-90%, the cells were collected, counted and inoculated.
0.2 mL (10×10^6 cells) of NCI-N87 cells were inoculated subcutaneously on the right back of each nude mouse (PBS+Matrigel, 1:1). When the average tumor volume reached 145 mm^3, administration to each group was started.
The test compounds were formulated into a 0.3 mg/mL clear solution in the solvents of 10% NMP (N-methylpyrrolidone)+10% ethylene glycol stearate+80% water.
The assay index is to investigate whether tumor growth is inhibited, delayed or cured. Tumor diameter was measured twice a week with a vernier caliper. The calculation formula of tumor volume is: V=0.5a×b^2, wherein a and b represent the long and short diameters of tumor, respectively.
The antitumor efficacy of the compounds were evaluated by TGI (%) or relative tumor proliferation rate T/C (%). TGI (%) reflects the tumor growth inhibition rate. TGI (%) is calculated as follows: TGI (%)=[1−(average tumor volume at the end of administration for a certain treatment group−average tumor volume at the beginning of administration for this treatment group)/(average tumor volume at the end of treatment for a solvent control group−average tumor volume at the beginning of administration for this solvent control group)][…].
Relative tumor proliferation rate T/C (%): the calculation formula is as follows: T/C %=TRTV/CRTV (TRTV: RTV for the treatment group; CRTV: RTV for the negative control group). Relative tumor volume (RTV) is calculated based on tumor measurement results. The calculation formula is RTV=Vt/V0, wherein V0 is the average tumor volume measured at the beginning of administration (i.e., d0) to each group, Vt is the average tumor volume at a certain measurement, and the data for TRTV and CRTV were taken on the same day.
The tumor weight was measured after the assay is over and the T/C weight percentage was calculated. T weight and C weight represent the tumor weight of the administration group and the vehicle control group, respectively.
Statistical analysis included the mean and standard error (SEM) of tumor volume at each time point in each group. […] The comparison between two groups was analyzed by T-test, and the comparison among three or more groups was analyzed by one-way ANOVA. […] All data analysis was carried out with SPSS 17.0. p<0.05 was considered a significant difference.

A short description of data set [2]: Assay Example 7: pharmacokinetics in mice. In kind it is in vivo. Particulars: mouse, female BALB/c mice, plasma, dose not given; for Tmax / half-life: oral; for AUC(0-t) / Cmax: oral plasma exposure. As to the method: Purpose of the assay: this assay aims to investigate in vivo plasma pharmacokinetics of the example compounds disclosed herein and the reference compound in female BALB/c mice after the single intravenous injection and intragastric administration thereof.
Animals of the assay: female BALB/c nude mice, 7-9 weeks old, weighted 17-23 grams; supplier: shanghai sippr bk laboratory animals Ltd.
Sample collection: at each time point, a 0.03 mL blood sample was collected from the saphenous vein of the test animal by puncture, and the actual blood collection time was recorded. All blood samples were added into commercial EDTA-K2 anticoagulation tubes with a specification of 1.5 mL (the supplier was Jiangsu KANGJIAN Medical Apparatus Co., Ltd.). Within half an hour after the blood sample was collected, the blood sample was centrifuged at 3000 g at 4° C. for 10 minutes, and the supernatant plasma was drawn, quickly placed in dry ice, and stored in a refrigerator at −80° C. for LC-MS/MS analysis.
Data analysis: Plasma concentrations were processed using a non-compartmental model of WinNonlin™ Version6.3 (Pharsight, MountainView, Calif.) pharmacokinetic software, and pharmacokinetic parameters Cmax, Tmax, T1/2, and AUC0-last were calculated using a linear log trapezoid method.

Another data set deals with T1, CYP2C9 (Homo sapiens, UniProt P11712).
T1 construct: in the assay of CYP enzyme activity in human liver microsome; from tissue; host or cells: human liver microsome
Description: inhibition of CYP enzyme activity in human liver microsome, CYP2C9. The class given is in vitro ADME. The text has this: (§1) The results of the compounds disclosed herein and the reference compound Poziotinib in the assay of CYP enzyme activity in human liver microsome were shown in the following table (Table 8).

The next data set addresses T2, CYP2C19 (Homo sapiens, UniProt P33261).
T2 construct: in the assay of CYP enzyme activity in human liver microsome; from tissue; host or cells: human liver microsome
The data set is described as follows: inhibition of CYP enzyme activity in human liver microsome, CYP2C19. The class given is in vitro ADME.
Source text: as §1

pIC50: −log10 of the molar value.

T1 sequence (P11712 whole entry): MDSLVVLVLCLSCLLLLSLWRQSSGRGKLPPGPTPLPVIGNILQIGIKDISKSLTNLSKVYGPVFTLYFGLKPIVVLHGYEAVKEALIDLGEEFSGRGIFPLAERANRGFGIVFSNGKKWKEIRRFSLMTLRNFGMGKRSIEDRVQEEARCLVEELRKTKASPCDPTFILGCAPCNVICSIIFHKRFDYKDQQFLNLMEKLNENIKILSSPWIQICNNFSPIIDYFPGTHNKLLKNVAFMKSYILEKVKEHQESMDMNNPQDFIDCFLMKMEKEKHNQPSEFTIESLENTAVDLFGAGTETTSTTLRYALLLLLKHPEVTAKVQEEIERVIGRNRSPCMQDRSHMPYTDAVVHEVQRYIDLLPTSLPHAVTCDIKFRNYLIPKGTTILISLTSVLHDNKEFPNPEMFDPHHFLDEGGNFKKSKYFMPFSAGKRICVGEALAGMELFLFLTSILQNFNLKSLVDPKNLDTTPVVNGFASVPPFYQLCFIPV
T2 sequence (P33261 whole entry): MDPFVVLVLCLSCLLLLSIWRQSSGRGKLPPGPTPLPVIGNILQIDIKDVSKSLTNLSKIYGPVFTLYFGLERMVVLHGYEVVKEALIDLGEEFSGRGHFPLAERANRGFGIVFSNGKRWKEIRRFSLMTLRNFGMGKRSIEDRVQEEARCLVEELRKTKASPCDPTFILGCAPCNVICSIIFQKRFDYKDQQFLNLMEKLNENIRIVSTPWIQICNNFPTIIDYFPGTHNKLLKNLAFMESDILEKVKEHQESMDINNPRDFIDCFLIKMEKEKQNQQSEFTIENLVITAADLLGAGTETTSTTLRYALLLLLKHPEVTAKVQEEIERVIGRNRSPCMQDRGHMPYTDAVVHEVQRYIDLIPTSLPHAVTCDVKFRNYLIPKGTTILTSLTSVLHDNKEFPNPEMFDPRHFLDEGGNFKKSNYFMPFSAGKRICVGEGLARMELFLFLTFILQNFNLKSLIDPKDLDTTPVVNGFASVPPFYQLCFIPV
HER2 (ErbB2), sequence (P04626 23-1255): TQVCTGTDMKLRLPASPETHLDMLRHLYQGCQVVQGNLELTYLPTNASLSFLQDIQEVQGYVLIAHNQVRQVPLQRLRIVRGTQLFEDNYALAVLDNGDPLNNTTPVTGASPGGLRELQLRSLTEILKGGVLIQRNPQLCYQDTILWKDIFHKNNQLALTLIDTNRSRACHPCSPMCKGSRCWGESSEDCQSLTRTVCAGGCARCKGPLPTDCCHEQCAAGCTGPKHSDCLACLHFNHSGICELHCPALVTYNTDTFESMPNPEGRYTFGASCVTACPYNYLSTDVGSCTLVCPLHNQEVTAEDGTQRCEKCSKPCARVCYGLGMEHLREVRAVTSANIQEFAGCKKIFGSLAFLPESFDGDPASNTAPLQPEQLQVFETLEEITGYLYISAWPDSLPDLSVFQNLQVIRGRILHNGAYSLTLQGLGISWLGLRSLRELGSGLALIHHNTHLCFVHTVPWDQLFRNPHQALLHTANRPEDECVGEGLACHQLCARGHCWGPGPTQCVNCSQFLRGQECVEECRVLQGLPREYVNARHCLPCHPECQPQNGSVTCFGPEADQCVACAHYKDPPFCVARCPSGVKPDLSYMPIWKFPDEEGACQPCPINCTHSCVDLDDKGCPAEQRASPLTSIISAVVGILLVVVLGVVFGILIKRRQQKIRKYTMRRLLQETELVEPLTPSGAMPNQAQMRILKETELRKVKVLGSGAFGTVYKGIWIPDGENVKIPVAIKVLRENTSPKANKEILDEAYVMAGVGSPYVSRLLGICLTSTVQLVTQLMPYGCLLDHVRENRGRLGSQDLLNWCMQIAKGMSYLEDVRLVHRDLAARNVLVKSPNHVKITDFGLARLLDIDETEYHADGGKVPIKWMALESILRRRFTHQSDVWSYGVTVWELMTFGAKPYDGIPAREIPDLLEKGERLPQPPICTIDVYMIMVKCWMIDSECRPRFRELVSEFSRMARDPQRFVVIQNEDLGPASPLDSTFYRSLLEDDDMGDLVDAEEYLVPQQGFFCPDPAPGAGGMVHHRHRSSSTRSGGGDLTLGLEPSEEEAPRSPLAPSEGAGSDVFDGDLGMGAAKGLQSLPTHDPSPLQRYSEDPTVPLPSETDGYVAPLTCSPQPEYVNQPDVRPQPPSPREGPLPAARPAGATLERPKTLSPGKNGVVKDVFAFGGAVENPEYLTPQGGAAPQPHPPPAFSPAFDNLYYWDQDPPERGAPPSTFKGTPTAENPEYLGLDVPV

`C=CC(=O)N1[C@@H]2CC[C@H]1C[C@H](Oc1cc3c(Nc4ccc(Cl)c(Cl)c4F)ncnc3cc1OC)C2` [Example 8] showed a negative logarithm of the IC50 (pIC50) at HER2 (ErbB2) of 8.26. For the same molecule, in data set [1], the “Tumor volume (mm3) (Day 21)” value is reported as 30 ± 7 mm3, the “T/C (%)” value is 4.19% and the “TGI (%)” value was found to be 119.71%. Also, the “body weight of test animals (reference index for drug toxicity)” value in data set [1] (mouse, in vivo) is “significantly better than that of the control compound Poziotinib”.

Consider `C=CC(=O)N1[C@@H]2CC[C@H]1C[C@H](Nc1cc3c(Nc4ccc(Cl)c(Cl)c4F)ncnc3cc1OC)C2` [Example 38], for which the negative-log IC50 (pIC50) against HER2 (ErbB2) is 8.30. In data set [2], the time of peak concentration (Tmax) is 2 h, the half-life is 3.2 h, the AUC(0-t) turned out to be 122 µM·h and the concentration peaked (Cmax) at 10.6 µM. The negative-log IC50 (pIC50) against CYP2C9 is 4.80. The “activity on CYP2C9, times better than that of the reference compound” value on CYP2C9 (versus Poziotinib) stood at 2 times. On CYP2C19, the negative-log IC50 (pIC50) was 4.96 and the “inhibition of CYP enzyme CYP2C19” value is on record as “comparable to that of the reference compound Poziotinib”.

Consider `C=CC(=O)N1CCC(Oc2cc3c(Nc4ccc(Cl)c(Cl)c4F)ncnc3cc2OC)CC1` [Poziotinib, reference compound], for which, in data set [1], the “Tumor volume (mm3) (Day 21)” value is recorded as 54 ± 12 mm3, the “T/C (%)” value was 7.55% and the “TGI (%)” value was 115.6%. In data set [2], the Tmax was determined as 0.25 h, the half-life is 2.3 h, the area under the curve AUC(0-t) came to 97.9 µM·h and the peak level (Cmax) was 17.3 µM. The pIC50 on CYP2C9 is 5.10. Also, the pIC50 against CYP2C19 was 4.92.

Values taken from patent US20210078958A1, “QUINAZOLINE DERIVATIVE AND USE THEREOF” (MEDSHINE DISCOVERY INC., priority 2017, published 2021).
